Data: publication PMC8752738, “A propolis-derived small molecule ameliorates metabolic syndrome in obese mice by targeting the CREB/CRTC2 transcriptional complex” (Nature Communications, 2022)
Values joined by “and” are separate entries in the source; they are usually repeats but may differ in a detail not shown here. Equal values may be shown once.

Experiments:
[1] = test system: cAMP in primary hepatocytes; test: Measurement of cAMP levels; format: cell-based, mouse; conditions: for cAMP, mean / cAMP: Gluc; for cAMP, mean: n=4 (Ctrl_Gluc 10.79); for cAMP: Supp. fig.3c, individual replicates
Procedure: At the end of indicated treatments, primary hepatocytes were collected in lysis buffer. The cAMP contents of cell lysates were then determined using cAMP ELISA kits (R&D) and normalized by total protein content as determined by BCA assay (Thermo).

[2] = Body weight and body composition (living NMR) of mice; format: in vivo, mouse; design: AUC of body weight curve, group mean / fat mass of DIO, group mean / Total Area (AUC of body weight curve): unit not given here; conditions: for Total Area (AUC of body weight curve) / Body weight, column mean (main column effect) / AUC of body weight curve, group mean / Body weight (BW) / Fat/lean ratio / fat mass of DIO / Fat/lean ratio, group mean / fat mass of DIO, group mean: DIO mice; for Body weight, column mean (main column effect): mean over 5 weeks, N=45; for AUC of body weight curve, group mean: n=9; for Fat/lean ratio, group mean / fat mass of DIO, group mean: n=8; for body weight of db/db ip APC, group mean: N 6; for Body weight, group mean: N=7; for Body weight: individual mice
Procedure: All animal experiments were performed according to procedures approved by the Shanghai Institutes for Biological Sciences (SIBS) Animal Care and Use Committee. The db/db mice (stock NO. 000642 C57BL/6J, JACKSON) were purchased from the Jackson laboratory. The 8–10-week-old wild-type C57BL/6 and ICR/JCL mice were purchased from the Shanghai Laboratory Animal Center. Mice were housed in the animal facility at SIBS, in which mice were maintained on a 12-h light/12-h dark cycle for at least 2 weeks before the study and had free access to water and a regular diet (12% fat). For high-fat-induced obesity mice (DIO), high-fat diet (60% fat, Research Diets) was fed to wild-type mice for at least 13–15 weeks and glucose-tolerance tests were performed to confirm the development of diabetes in these mice. After being euthanized, samples were collected. Unless specified, male mice were used for these experiments.
Under the condition of non-anesthesia and non-invasion, the composition of fat and lean in live mice was analyzed by nuclear magnetic resonance (NMR, The Minispec, Bruker) according to the operational manual.

[3] = DIO and db/db mice, i.p. 10 or 20 mg/kg
[4] = APC 10 mg/kg, individual animals
[5] = APC 20 mg/kg, individual animals
[6] = db/db mice, mean, sample size 7

Structure (SMILES): CC(C)=CCc1cc(C=CC(=O)O)cc(CC=C(C)C)c1O [APC, 3,5-diprenyl-4-hydroxycinnamic acid]
- cAMP, mean ([1]; APC 0.5H): 11.36 pmol/µg
- cAMP, mean ([1]; APC 1H): 10.43 pmol/µg
- cAMP, mean ([1]; APC 5H): 10.31 pmol/µg
- cAMP ([1]; APC 0.5H): 9.765 pmol/µg and 13.6965 pmol/µg and 13.5803 pmol/µg and 8.4137 pmol/µg
- cAMP ([1]; APC 1H): 10.9076 pmol/µg and 11.1137 pmol/µg and 11.3636 pmol/µg and 8.343 pmol/µg
- cAMP ([1]; APC 5H): 11.3502 pmol/µg and 9.481 pmol/µg and 11.2821 pmol/µg and 9.132 pmol/µg
- cAMP accumulation induced by glucagon ([1]; primary hepatocytes): did not alter
- body weights [2, 3]: reduced
- fat mass and fat to lean ratio [2, 3]: significant decrease
- Total Area (AUC of body weight curve) ([2]; APC 10 mg/kg ip, individual animals): 120.1 and 149.9 and 145.1 and 147.4 and 144.1 and 156.2 and 141.9 and 151.1 and 155.2
- Body weight, column mean (main column effect) ([2]; APC 10 mg/kg ip, in g (unit assumed)): 37.24
- AUC of body weight curve, group mean ([2]; APC 10 mg/kg ip): 145.7
- Body weight (BW) ([2]; APC 10 mg/kg ip, week 0, individual animals): 35.8 g and 42.4 g and 44.2 g and 42.6 g and 43.4 g and 41.4 g and 42 g and 41.7 g and 47 g
- Body weight (BW) ([2]; APC 10 mg/kg ip, week 1, individual animals): 29.5 g and 36.7 g (2×) and 37.7 g and 36.4 g and 42.9 g and 35.2 g and 34.9 g and 39.6 g
- Body weight (BW) ([2]; APC 10 mg/kg ip, week 2, individual animals): 29.3 g and 36.8 g and 38.4 g and 36 g (2×) and 36.6 g and 42.8 g and 35.7 g and 39.9 g
- Body weight (BW) ([2]; APC 10 mg/kg ip, week 3, individual animals): 29.3 g and 37.3 g and 38.5 g and 36.1 g and 35 g and 42.4 g and 35.3 g and 35.8 g and 39.5 g
- Body weight (BW) ([2]; APC 10 mg/kg ip, week 4, individual animals): 29.7 g and 37.3 g and 38.4 g and 36.7 g and 33.7 g and 40.9 g and 33.3 g and 42 g and 37.2 g
- Body weight (BW) ([2]; APC 10 mg/kg ip, week 5, individual animals): 34.01 g and 40.28 g and 41.99 g and 40.47 g and 41.23 g and 39.33 g and 39.9 g and 39.615 g and 44.65 g
- Fat/lean ratio [2, 4]: 0.4757 and 0.5256 and 0.2029 and 0.4176 and 0.1933 and 0.2387 and 0.2853 and 0.2798
- fat mass of DIO [2, 4]: 10.86 g and 11.25 g and 7.23 g and 10.98 g and 11.28 g and 7.03 g and 6.72 g and 7.86 g
- Fat/lean ratio, group mean ([2]; APC 10 mg/kg): 0.3274
- fat mass of DIO, group mean ([2]; APC 10 mg/kg): 9.151
- Total Area (AUC of body weight curve) ([2]; APC 20 mg/kg ip, individual animals): 123.1 and 131.4 and 141.8 and 135.4 and 152.5 and 146.9 and 147.6 and 154 and 138.7
- Body weight, column mean (main column effect) ([2]; APC 20 mg/kg ip, in g (unit assumed)): 35.74
- AUC of body weight curve, group mean ([2]; APC 20 mg/kg ip): 141.3
- Body weight (BW) ([2]; APC 20 mg/kg ip, week 0, individual animals): 36.3 g and 41.5 g and 43.7 g and 41.3 g (2×) and 48.2 g and 44.7 g and 46.6 g and 47.1 g
- Body weight (BW) ([2]; APC 20 mg/kg ip, week 1, individual animals): 29.9 g and 34.9 g and 36.7 g and 33 g and 40.6 g and 37.6 g and 35.9 g and 38.6 g and 35.1 g
- Body weight (BW) ([2]; APC 20 mg/kg ip, week 2, individual animals): 30.2 g and 33.7 g (2×) and 35.8 g and 41.6 g and 38.4 g and 36.8 g and 39.6 g and 34.9 g
- Body weight (BW) ([2]; APC 20 mg/kg ip, week 3, individual animals): 30 g and 31.4 g and 35.1 g and 33.7 g and 41.2 g and 35.4 g and 36.3 g and 37.9 g and 34.4 g
- Body weight (BW) ([2]; APC 20 mg/kg ip, week 4, individual animals): 30.5 g and 31.2 g and 34 g (2×) and 38.9 g and 31.3 g and 36.7 g and 37.2 g and 34.3 g
- Body weight (BW) ([2]; APC 20 mg/kg ip, week 5, individual animals): 30.855 g and 35.275 g and 37.145 g and 35.105 g (2×) and 40.97 g and 37.995 g and 39.61 g and 40.035 g
- Fat/lean ratio [2, 5]: 0.1945 and 0.1916 and 0.1806 and 0.5498 and 0.1998 and 0.4126 and 0.3005 and 0.2177
- fat mass of DIO [2, 5]: 8.13 g and 8.08 g and 9.26 g and 10.23 g and 9.91 g and 8.44 g and 10.75 g and 9.93 g
- Fat/lean ratio, group mean ([2]; APC 20 mg/kg): 0.2809
- fat mass of DIO, group mean ([2]; APC 20 mg/kg): 9.341
- fat of db/db mice ([2]; db/db mice, individual animals): 13.23 g and 18.64 g and 16.51 g and 20.35 g and 17.58 g and 17.71 g and 15.53 g
- fat/lean ratio of db/db mice ([2]; db/db mice, individual animals): 1.371 and 1.124 (2×) and 1.477 and 1.196 and 1.113 and 1.231
- body weight of db/db ip APC ([2]; db/db mice, 0W, individual animals): 45.4 g and 45.3 g and 44.6 g and 40 g and 47.8 g and 44 g
- body weight of db/db ip APC ([2]; db/db mice, 1W, individual animals): 48.6 g and 47.9 g and 47.4 g and 42.5 g and 49.5 g and 45.9 g
- body weight of db/db ip APC, group mean ([2]; db/db mice, 1W, mean): 46.97 g
- body weight of db/db ip APC ([2]; db/db mice, 2W, individual animals): 48.4 g and 47.9 g and 47.3 g and 41.7 g and 48.9 g and 45.9 g
- body weight of db/db ip APC ([2]; db/db mice, 4W, individual animals): 47.9 g and 46.5 g and 48.1 g and 42.5 g and 45.8 g and 47.8 g
- body weight of db/db ip APC, group mean ([2]; db/db mice, 4W, mean): 46.43 g
- body weight of db/db ip APC ([2]; db/db mice, 5W, individual animals): 47.9 g and 45.3 g and 47.8 g and 44.9 g and 46.8 g and 48.5 g
- body weight of db/db ip APC, group mean ([2]; db/db mice, 5W, mean): 46.87 g
- fat of db/db mice, group mean [2, 6]: 17.08 g
- fat/lean ratio of db/db mice, group mean [2, 6]: 1.234
- Body weight, group mean ([2]; lean WT mice ip APC, 8w, in g (unit assumed)): 20.96
- Body weight ([2]; lean WT mice ip APC, 8w): 21.4 g and 21.2 g and 20.1 g and 20.5 g and 21.7 g and 20.9 g (2×) and 21.6 g
- Body weight, column mean over all weeks ([2]; lean WT mice ip APC, 8w-15w, in g (unit assumed)): 22.98
- Body weight, group mean ([2]; lean WT mice ip APC, 10w, in g (unit assumed)): 22.01
- Body weight ([2]; lean WT mice ip APC, 10w): 23.62 g and 20.96 g and 22.95 g and 20.89 g and 22.05 g and 22.38 g and 21.2 g and 21.22 g
- Body weight, group mean ([2]; lean WT mice ip APC, 12w, in g (unit assumed)): 23.14
- Body weight ([2]; lean WT mice ip APC, 12w): 25.7 g and 21.4 g and 23.7 g and 23 g and 24.2 g and 22.5 g and 23.3 g and 21.5 g
- Body weight, group mean ([2]; lean WT mice ip APC, 13w, in g (unit assumed)): 24.08
- Body weight ([2]; lean WT mice ip APC, 13w): 25.85 g and 22.7 g and 24.7 g and 23.6 g and 24.5 g and 24.21 g and 23.8 g and 23 g
- Body weight, group mean ([2]; lean WT mice ip APC, 15w, in g (unit assumed)): 24.72
- Body weight ([2]; lean WT mice ip APC, 15w): 27.03 g and 22.8 g and 25.2 g and 23.7 g and 26 g and 24.5 g and 23.5 g and 23.8 g
- RER, body weight and plasma NEFA levels of lean mice ([2]; lean wild C57 mice, i.p. 20 mg/kg, 3 weeks): little effect
